Test results from US12139520B2 (priority 2020, dated 2024).
Bridge positions count the residues as written; N and C are the ends. Square brackets hold non-standard residues; d marks the D form. Peptide text beside a SMILES is read from it. Hyp = O=C(O)[C@@H]1C[C@@H](O)CN1

Experiments:
[1] = Physical stability of peptide analogues (Thioflavin T fibrillation); assay type: physicochemical; settings: maximum ThT signal normalized between hAMY maximum and buffer background; 40° C., shaking, four days; pH 7 per table title
Summary of the method: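 Maximum ThT emission at 480 nm, after LOESS smoothing, is given as percent of the span from buffer background to hAMY. Conditions: 50 mM buffer at pH 4 or 7, 4 μM dye, 40 °C, repeated shaking, readings every 10 min for four days.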

[2] = biological target: T1, hAMY3 receptor (Homo sapiens, UniProt O60896+P30988); assay: cAMP assay for in vitro receptor activation, hAMY3-R; assay type: cell-based; settings: cAMP assay, hAMY3 receptor; read-out: hAMY3R EC50
T1 sequence (P30988 25-474): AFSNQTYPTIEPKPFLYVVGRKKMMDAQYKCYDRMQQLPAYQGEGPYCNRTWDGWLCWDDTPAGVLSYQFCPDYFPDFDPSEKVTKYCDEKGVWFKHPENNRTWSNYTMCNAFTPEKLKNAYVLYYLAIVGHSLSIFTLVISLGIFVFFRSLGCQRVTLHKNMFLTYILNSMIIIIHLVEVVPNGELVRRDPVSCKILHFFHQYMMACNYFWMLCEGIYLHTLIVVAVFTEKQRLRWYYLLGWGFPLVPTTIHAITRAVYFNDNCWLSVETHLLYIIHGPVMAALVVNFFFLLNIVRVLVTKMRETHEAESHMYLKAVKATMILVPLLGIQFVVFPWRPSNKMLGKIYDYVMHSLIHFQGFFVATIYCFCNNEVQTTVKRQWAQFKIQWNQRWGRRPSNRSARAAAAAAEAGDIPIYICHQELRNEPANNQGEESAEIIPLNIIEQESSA
T1 sequence (O60896 24-148 partner): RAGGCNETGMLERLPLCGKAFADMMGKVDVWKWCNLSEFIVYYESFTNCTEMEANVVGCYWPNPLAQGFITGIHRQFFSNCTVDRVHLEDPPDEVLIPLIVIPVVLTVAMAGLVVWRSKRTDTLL
Summary of the method: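 Read-out is TR-FRET cAMP signal, recorded one hour after reagent addition, following 30 min room-temperature stimulation of stable hAMY3 cells with graded compound doses in casein/IBMX (0.5 mM) buffer.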

[3] = biological target: hAM1 receptor (Homo sapiens, UniProt O60895+Q16602); assay: cAMP assay for in vitro receptor activation, hAM1-R; assay type: cell-based; settings: cAMP assay, hAM1 receptor; read-out: hAM1R EC50
Summary of the method: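 A subcloned monoclonal line stably expressing hAM1 receptor is thawed and plated at 8000 cells/well. The assay buffer is DPBS with 0.05% casein and 0.5 mM IBMX, and receptor activation is followed by cAMP levels.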

Chain of hAM1 receptor (Q16602 23-461): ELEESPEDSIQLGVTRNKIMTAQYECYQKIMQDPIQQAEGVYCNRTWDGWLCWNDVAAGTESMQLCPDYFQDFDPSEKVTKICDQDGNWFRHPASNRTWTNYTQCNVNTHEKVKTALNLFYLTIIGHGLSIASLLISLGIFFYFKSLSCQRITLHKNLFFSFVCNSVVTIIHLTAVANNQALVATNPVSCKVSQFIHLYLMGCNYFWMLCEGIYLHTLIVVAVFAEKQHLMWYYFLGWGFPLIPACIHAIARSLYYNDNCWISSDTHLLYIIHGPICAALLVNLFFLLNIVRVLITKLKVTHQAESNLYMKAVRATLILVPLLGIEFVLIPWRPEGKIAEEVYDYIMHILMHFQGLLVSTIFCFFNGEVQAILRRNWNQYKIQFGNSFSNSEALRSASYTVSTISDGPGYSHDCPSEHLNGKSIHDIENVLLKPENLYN
Chain of hAM1 receptor (O60895 43-175 partner): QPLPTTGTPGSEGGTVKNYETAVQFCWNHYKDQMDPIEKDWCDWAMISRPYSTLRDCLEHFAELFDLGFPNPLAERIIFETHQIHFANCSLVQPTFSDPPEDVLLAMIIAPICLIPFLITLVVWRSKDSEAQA

| Max ThT signal (%) [1] [%] | EC50 [2] [nM] | EC50 [3] [nM] | Compound |
| --- | --- | --- | --- |
| 6.300 | 0.01 | > 5000 | CC[C@H](C)[C@H](NC(=O)[C@H](CCC(N)=O)NC(=O)[C@H](Cc1c[nH]cn1)NC(=O)[C@H](C)NC(=O)[C@H](CC(C)C)NC(=O)[C@H](CCCNC(=N)N)NC(=O)[C@H](CCC(N)=O)NC(=O)[C@@H](NC(=O)[C@@H](NC(=O)[C@@H]1CSSC[C@H](NC(=O)[C@@H](N)CCCCN)C(=O)N[C@@H](CC(N)=O)C(=O)N[C@@H]([C@@H](C)O)C(=O)N[C@@H](C)C(=O)N[C@@H]([C@@H](C)O)C(=O)N1)[C@@H](C)O)C(C)C)C(=O)N[C@@H](Cc1ccc(O)cc1)C(=O)N[C@@H](C)C(=O)N[C@@H](Cc1ccccc1)C(=O)N[C@H](C(=O)N[C@@H](CC(=O)O)C(=O)N[C@@H](CCCCN)C(=O)N[C@@H](CC(=O)O)C(=O)N[C@@H](CCCCN)C(=O)N[C@@H](CC(=O)O)C(=O)N[C@@H](CC(N)=O)C(=O)N[C@H](C(=O)N[C@@H](C)C(=O)N1CCC[C@H]1C(=O)N1CCC[C@H]1C(=O)N[C@H](C(=O)N[C@@H](CC(N)=O)C(=O)N[C@H](C(=O)NCC(=O)N[C@@H](CO)C(=O)N[C@@H](CC(N)=O)C(=O)NCC(=O)N1C[C@H](O)C[C@H]1C(N)=O)C(C)C)[C@@H](C)O)C(C)C)[C@@H](C)O [compound 42] (H-KCNTATCTVQRLAHQIYAFTDKDKDNVAPPTNVGSNG[Hyp]-NH2; disulfide 2-7; N-terminus assumed) |
| 1.200 | 0.01 | > 5000 | CC[C@H](C)[C@H](NC(=O)[C@H](CCC(N)=O)NC(=O)[C@H](Cc1c[nH]cn1)NC(=O)[C@H](C)NC(=O)[C@H](CC(C)C)NC(=O)[C@H](CCCNC(=N)N)NC(=O)[C@H](CCC(N)=O)NC(=O)[C@@H](NC(=O)[C@@H](NC(=O)[C@@H]1CSSC[C@H](NC(=O)[C@@H](N)CCCCN)C(=O)N[C@@H](CC(N)=O)C(=O)N[C@@H]([C@@H](C)O)C(=O)N[C@@H](C)C(=O)N[C@@H]([C@@H](C)O)C(=O)N1)[C@@H](C)O)C(C)C)C(=O)N[C@@H](Cc1ccc(O)cc1)C(=O)N[C@@H](CCC(N)=O)C(=O)N[C@@H](Cc1ccccc1)C(=O)N[C@H](C(=O)N[C@@H](CC(=O)O)C(=O)N[C@@H](CCCCN)C(=O)N[C@@H](C)C(=O)N[C@@H](CCCCN)C(=O)N[C@@H](CC(=O)O)C(=O)N[C@@H](CC(N)=O)C(=O)N[C@H](C(=O)N[C@@H](C)C(=O)N1CCC[C@H]1C(=O)N1CCC[C@H]1C(=O)N[C@H](C(=O)N[C@@H](CC(N)=O)C(=O)N[C@H](C(=O)NCC(=O)N[C@@H](CO)C(=O)N[C@@H](CC(N)=O)C(=O)NCC(=O)N1C[C@H](O)C[C@H]1C(N)=O)C(C)C)[C@@H](C)O)C(C)C)[C@@H](C)O [compound 43] (H-KCNTATCTVQRLAHQIYQFTDKAKDNVAPPTNVGSNG[Hyp]-NH2; disulfide 2-7; N-terminus assumed) |
| 7.600 | 0.011 | > 5000 | CC[C@H](C)[C@H](NC(=O)[C@H](CCC(N)=O)NC(=O)[C@H](Cc1c[nH]cn1)NC(=O)[C@H](C)NC(=O)[C@H](CC(C)C)NC(=O)[C@H](CCCNC(=N)N)NC(=O)[C@H](CCC(N)=O)NC(=O)[C@@H](NC(=O)[C@@H](NC(=O)[C@@H]1CSSC[C@H](NC(=O)[C@@H](N)CCCCN)C(=O)N[C@@H](CC(N)=O)C(=O)N[C@@H]([C@@H](C)O)C(=O)N[C@@H](C)C(=O)N[C@@H]([C@@H](C)O)C(=O)N1)[C@@H](C)O)C(C)C)C(=O)N[C@@H](Cc1ccc(O)cc1)C(=O)N[C@@H](CCC(N)=O)C(=O)N[C@@H](Cc1ccccc1)C(=O)N[C@H](C(=O)N[C@@H](CC(=O)O)C(=O)N[C@@H](CCCCN)C(=O)N[C@@H](CC(=O)O)C(=O)N[C@@H](CCCCN)C(=O)N[C@@H](CC(=O)O)C(=O)N[C@@H](C)C(=O)N[C@H](C(=O)N[C@@H](C)C(=O)N1CCC[C@H]1C(=O)N1CCC[C@H]1C(=O)N[C@H](C(=O)N[C@@H](CC(N)=O)C(=O)N[C@H](C(=O)NCC(=O)N[C@@H](CO)C(=O)N[C@@H](CC(N)=O)C(=O)NCC(=O)N1C[C@H](O)C[C@H]1C(N)=O)C(C)C)[C@@H](C)O)C(C)C)[C@@H](C)O [compound 52] (H-KCNTATCTVQRLAHQIYQFTDKDKDAVAPPTNVGSNG[Hyp]-NH2; disulfide 2-7; N-terminus assumed) |
| 2.700 | 0.012 | > 5000 | CC[C@H](C)[C@H](NC(=O)[C@H](CCC(N)=O)NC(=O)[C@H](Cc1c[nH]cn1)NC(=O)[C@H](C)NC(=O)[C@H](CC(C)C)NC(=O)[C@H](CCCNC(=N)N)NC(=O)[C@H](CCC(N)=O)NC(=O)[C@@H](NC(=O)[C@@H](NC(=O)[C@@H]1CSSC[C@H](NC(=O)[C@@H](N)CCCCN)C(=O)N[C@@H](CC(N)=O)C(=O)N[C@@H]([C@@H](C)O)C(=O)N[C@@H](C)C(=O)N[C@@H]([C@@H](C)O)C(=O)N1)[C@@H](C)O)C(C)C)C(=O)N[C@@H](Cc1ccc(O)cc1)C(=O)N[C@@H](CCC(N)=O)C(=O)N[C@@H](Cc1ccccc1)C(=O)N[C@H](C(=O)N[C@@H](CC(=O)O)C(=O)N[C@@H](C)C(=O)N[C@@H](CC(=O)O)C(=O)N[C@@H](CCCCN)C(=O)N[C@@H](CC(=O)O)C(=O)N[C@@H](CC(N)=O)C(=O)N[C@H](C(=O)N[C@@H](C)C(=O)N1CCC[C@H]1C(=O)N1CCC[C@H]1C(=O)N[C@H](C(=O)N[C@@H](CC(N)=O)C(=O)N[C@H](C(=O)NCC(=O)N[C@@H](CO)C(=O)N[C@@H](CC(N)=O)C(=O)NCC(=O)N1C[C@H](O)C[C@H]1C(N)=O)C(C)C)[C@@H](C)O)C(C)C)[C@@H](C)O [compound 64] (H-KCNTATCTVQRLAHQIYQFTDADKDNVAPPTNVGSNG[Hyp]-NH2; disulfide 2-7) |
| 1.000 | 0.012 | > 5000 | CC[C@H](C)[C@H](NC(=O)[C@H](CCC(N)=O)NC(=O)[C@H](Cc1c[nH]cn1)NC(=O)[C@H](C)NC(=O)[C@H](CC(C)C)NC(=O)[C@H](CCCNC(=N)N)NC(=O)[C@H](CCC(N)=O)NC(=O)[C@@H](NC(=O)[C@@H](NC(=O)[C@@H]1CSSC[C@H](NC(=O)[C@@H](N)CCCCN)C(=O)N[C@@H](CC(N)=O)C(=O)N[C@@H]([C@@H](C)O)C(=O)N[C@@H](C)C(=O)N[C@@H]([C@@H](C)O)C(=O)N1)[C@@H](C)O)C(C)C)C(=O)N[C@@H](Cc1ccc(O)cc1)C(=O)N[C@@H](CCC(N)=O)C(=O)N[C@@H](Cc1ccccc1)C(=O)N[C@@H](CC(=O)O)C(=O)N[C@@H](CCCCN)C(=O)N[C@@H](CC(=O)O)C(=O)N[C@@H](CCCCN)C(=O)N[C@@H](CC(=O)O)C(=O)N[C@@H](CC(N)=O)C(=O)N[C@H](C(=O)N[C@@H](C)C(=O)N1CCC[C@H]1C(=O)N1CCC[C@H]1C(=O)N[C@H](C(=O)N[C@@H](CC(N)=O)C(=O)N[C@H](C(=O)NCC(=O)N[C@@H](CO)C(=O)N[C@@H](CC(N)=O)C(=O)NCC(=O)N1C[C@H](O)C[C@H]1C(N)=O)C(C)C)[C@@H](C)O)C(C)C [compound 65] (H-KCNTATCTVQRLAHQIYQFDKDKDNVAPPTNVGSNG[Hyp]-NH2; disulfide 2-7; N-terminus assumed) |
